Assay results taken from ChEMBL document CHEMBL1157215, “Isolation and structural modification of 7-deoxynarciclasine and 7-deoxy-trans-dihydronarciclasine” (2006).
Converted amounts (≈) assume the structure as drawn.

Columns and labels:
Assay type in all cases: functional
BXPC-3 = assay: Growth inhibition of human BXPC3 cells
DU-145 = assay: Growth inhibition of human DU145 cells
[1] = Growth inhibition of human SF269 cells
NCI-H460 = assay: Growth inhibition of human NCI-H460 cells
P388 = assay: Growth inhibition of mouse P388 cells; details: for EC50: read-out: ED50 (the source's name)
KM-20L2 = assay: Growth inhibition of human KM20L2 cells
MCF7 = assay: Growth inhibition of human MCF7 cells

GI50 (P388) [µg/mL]	Structure (SMILES)	GI (BXPC-3) [µg/mL]	GI50 (DU-145) [µg/mL]	GI50 [1] [µg/mL]	GI50 (NCI-H460) [µg/mL]	EC50 (P388) [µg/mL]	GI50 (KM-20L2) [µg/mL]	GI50 (MCF7) [µg/mL]
	O=C1N[C@H]2[C@H](O)[C@H](O)[C@@H](O)C[C@@H]2c2cc3c(cc21)OCO3	0.036	0.025 (≈ 0.0852 µM)	0.03 (≈ 0.102 µM)	0.037 (≈ 0.126 µM)	< 0.01	0.028 (≈ 0.0955 µM)	0.03 (≈ 0.102 µM)
	O=C1N[C@@H]2C(=C[C@H](O)[C@@H](O)[C@H]2O)c2cc3c(cc21)OCO3	0.12	0.062 (≈ 0.213 µM)	0.047 (≈ 0.161 µM)	0.11 (≈ 0.378 µM)	< 0.01	0.15 (≈ 0.515 µM)	0.093 (≈ 0.319 µM)
	Cl.O[C@@H]1[C@H](O)[C@@H](O)C[C@@H]2c3cc4c(cc3CN[C@@H]12)OCO4	1.4	0.71	1.6	0.78	3.3	1.7	1.7
	O[C@@H]1[C@H](O)[C@@H](O)C[C@@H]2c3cc4c(cc3CN[C@@H]12)OCO4	>10	4.4 (≈ 15.8 µM)	> 10	7.5 (≈ 26.9 µM)	0.43 (≈ 1.54 µM)	> 10	> 10
	Cl.O[C@@H]1[C@H](O)[C@@H](O)C=C2c3cc4c(cc3CN[C@H]21)OCO4	4.4	3.2	2.9	3.4	7.1	> 10	3.4
> 10	CC1(C)O[C@@H]2[C@H](O1)[C@@H](O)C=C1c3cc4c(cc3C(=O)N[C@H]12)OCO4							
> 10	CC1(C)O[C@@H]2[C@H](O1)[C@@H](O[Si](C)(C)C(C)(C)C)C=C1c3cc4c(cc3C(=O)N[C@H]12)OCO4							
> 10	CC1(C)O[C@H]2[C@@H]3NC(=O)c4cc5c(cc4[C@H]3C[C@H](O)[C@H]2O1)OCO5							
	CC(=O)O[C@H]1[C@@H]2NC(=O)c3cc4c(cc3[C@H]2C[C@H](OC(C)=O)[C@H]1OC(C)=O)OCO4	0.69	0.46 (≈ 1.1 µM)	0.3 (≈ 0.715 µM)	1.5 (≈ 3.58 µM)	1.61 (≈ 3.84 µM)	0.66 (≈ 1.57 µM)	0.46 (≈ 1.1 µM)
> 10	CC1(C)O[C@@H]2[C@H](O1)[C@@H](O)C=C1c3cc4c(cc3CN[C@H]12)OCO4							
> 10	CC1(C)O[C@H]2[C@@H]3NCc4cc5c(cc4[C@H]3C[C@H](O[Si](C)(C)C(C)(C)C)[C@H]2O1)OCO5							
> 10	CC1(C)O[C@H]2[C@@H]3NC(=O)c4cc5c(cc4[C@H]3C[C@H](O[Si](C)(C)C(C)(C)C)[C@H]2O1)OCO5							
	CC(=O)O[C@H]1C=C2c3cc4c(cc3C(=O)N[C@H]2[C@H](O)[C@@H]1O)OCO4	0.26	0.26 (≈ 0.78 µM)	0.19 (≈ 0.57 µM)	0.32 (≈ 0.96 µM)	< 0.01	0.18 (≈ 0.54 µM)	0.24 (≈ 0.72 µM)
> 10	CC1(C)O[C@H]2[C@@H]3NCc4cc5c(cc4[C@H]3C[C@H](O)[C@H]2O1)OCO5							
> 10	CC(=O)O[C@H]1C=C2c3cc4c(cc3C(=O)N[C@H]2[C@@H]2OC(C)(C)O[C@@H]21)OCO4							
> 10	CC1(C)O[C@@H]2[C@H](O1)[C@@H](O[Si](C)(C)C(C)(C)C)C=C1c3cc4c(cc3CN[C@H]12)OCO4							
	CC(=O)O[C@@H]1[C@H](OC(C)=O)[C@@H](OC(C)=O)C=C2c3cc4c(cc3C(=O)N[C@H]21)OCO4 [LYCORICIDINE TRIACETATE]	0.2	0.48	0.15	1.2	0.158	0.18	0.59
	O=C1N[C@@H]2C(=C[C@H](O)[C@@H](O)[C@H]2O)c2cc3c(c(O)c21)OCO3 [NARCICLASINE]	0.026	0.011 (≈ 0.0358 µM)	0.021 (≈ 0.0683 µM)	0.032 (≈ 0.104 µM)	0.002 (≈ 0.00651 µM)	0.21 (≈ 0.683 µM)	0.019 (≈ 0.0618 µM)
	O=C1N[C@H]2[C@H](O)[C@H](O)[C@@H](O)[C@H](O)[C@@H]2c2cc3c(c(O)c21)OCO3 [PANCRATISTATIN]	0.028	0.016 (≈ 0.0492 µM)	0.017 (≈ 0.0523 µM)	0.048 (≈ 0.148 µM)	0.039 (≈ 0.12 µM)	0.026 (≈ 0.0799 µM)	0.032 (≈ 0.0984 µM)
